Reference: article PMC12884772, “Macrophagic Sclerostin Loop2‐ApoER2 Interaction Required by Sclerostin for Cardiovascular Protective Action” (Advanced Science, 2025)

Test system: RAW264.7 macrophages (siLrp8)
Experiment: LPS‐induced inflammatory responses in RAW264.7 macrophages (siLrp8) with or without ApoER2 (Lrp8) plasmid
Format: cell-based, mouse
Text: Further, we tracked the dynamic changes of inflammatory responses in mouse RAW264.7 macrophages (with Lrp8 silencing for shielding the influence of endogenous ApoER2). The RAW264.7 macrophages (siLrp8) were transfected with plasmids encoding ApoER2 (Lrp8) or vector, followed by treatment with recombinant mouse sclerostin and induction with LPS for varying durations. In detail, RAW 264.7 macrophages (siLrp8) were divided into 7 groups (n = 3 per group), including (1) Control, (2) LPS, (3) LPS + SOST, (4) Lrp8 + LPS + SOST 250 nM, (5) Lrp8 + LPS + SOST 500 nM, (6) Lrp8 + LPS + SOST 1 µM, and (7) Lrp8 + LPS. Cells in group (4–7) were transfected with plasmids encoding mouse ApoER2 (Lrp8), while cells in group (1–3) were transfected with vector. Twenty four hours later, cells in groups (3), (4), (5), and (6) were treated with recombinant mouse sclerostin at concentration of 1 µM, 250 nM, 500 nM, and 1 µM for 3 h, respectively, while cells in groups (1), (2), and (7) were treated with vehicle.^[ [35] ^] Then, cells in group (2‐7) were treated with LPS (1 µg/mL) for 18 h. All groups of cell lysates were collected for determining the mRNA expression levels of mouse TNF‐α, mouse MCP‐1, and mouse IL‐10 by RT‐PCR. Given the significant efficacy of recombinant mouse sclerostin at a concentration of 1 µM in mouse macrophages, 1 µM was selected for the subsequent studies.
Then, the protein expression/secretion levels of pro‐inflammatory/anti‐inflammatory cytokines and chemokines, macrophage conversion, NF‐κB subcellular localization, phosphorylation, and expression were determined. In detail, RAW 264.7 cells (siLrp8) were divided into 5 groups (n = 3 per group), including (1) Control, (2) LPS, (3) LPS + SOST, (4) Lrp8 + LPS + SOST, and (5) Lrp8 + LPS. RAW 264.7 cells in groups (4) and (5) were transfected with plasmids encoding mouse ApoER2 (Lrp8), while cells in group (1‐3) were transfected with vector. Twenty four hours later, cells in groups (3) and (4) were treated with recombinant mouse sclerostin (SOST, 1 µM) for 3 h, while cells in groups (1), (2), and (5) were treated with vehicle.^[ [35] ^] Then, cells in groups (2), (3), (4), and (5) were treated with LPS (1 µg/mL) for 12 and 18 h. Cell mediums were collected for determining the protein expression/secretion levels of mouse TNF‐α, mouse MCP‐1, and mouse IL‐10 by ELISA.^[ [34] ^] The CD206^+ macrophages and CD11b^+ macrophages were determined by flow cytometry.^[ [36] ^]
Additionally, for the determination of NF‐κB (p65) nuclear translocation, macrophages in groups (3) and (4) were treated with recombinant mouse sclerostin (SOST, 1 µM) overnight, then macrophages in groups (2), (3), (4), and (5) were treated with LPS (1 µg/mL) for 15 and 30 min. The NF‐κB (p65) nuclear translocation in macrophages was examined under microscope, after LPS induction for 15 min.^[ [37] ^] The protein level of NF‐κB (p65) in nuclear and cytoplasm was determined by western blot assay, after LPS induction for 30 min.^[ [38] ^]
Subsequently, for the determination of NF‐κB phosphorylation, macrophages in groups (3) and (4) were treated with recombinant mouse sclerostin (SOST, 1 µM) overnight, then macrophages in groups (2), (3), (4), and (5) were treated with LPS (1 µg/mL) for 6 h. The protein level of phospho‐NF‐κB (p‐p65) was determined by western blot assay, followed by calculating the proportion of p‐p65/total p65 in cells.^[ [39] ^] At the same time, the mRNA expression level of NF‐κB (p65) was determined by RT‐PCR.^[ [40] ^] […]
Total RNA was extracted from cells following the protocols of Trizol reagent (Invitrogen, 15 596 026). Reverse‐transcription was performed to obtain cDNA using HiScript III RT SuperMix kit (Vazyme, R323), and RT‐PCR was accomplished using a HiScript III RT SuperMix kit (Vazyme, R323) in a QuantStudio 7 PRO System (Applied Biosystems). The relative gene expression levels were calculated using the 2^−ΔΔCt method with GAPDH as the reference gene.^[ [40] ^] […]

[1] = 1 µM, ApoER2‐overexpressing macrophages versus LPS+SOST or Lrp8+LPS, LPS 18 h, ELISA
[2] = 1 µM, ApoER2‐overexpressing macrophages, LPS 30 min, western blot
[3] = 1 µM, ApoER2‐overexpressing, versus LPS group, P < 0.01, LPS 18 h
[4] = Lrp8+LPS+SOST 250 nM, 500 nM, 1 µM versus LPS+SOST or Lrp8+LPS, LPS 18 h, RT‐PCR

Question: For “sclerostin: recombinant human/mouse full‐length sclerostin protein”, which “NF‐κB nuclear translocation” value (1 µM overnight, ApoER2‐overexpressing macrophages, LPS 15 min, immunofluorescence) is on record?
Answer: significantly lower

Question: And the “Medium protein level of IL‐10” value [1]?
Answer: significantly higher

Question: And the “Medium protein levels of TNF‐α and MCP‐1” value [1]?
Answer: significantly lower

Question: And the “Proportion of anti‐inflammatory phenotype (CD206^+)” value (1 µM, ApoER2‐overexpressing macrophages, LPS 12 and 18 h, flow cytometry)?
Answer: significantly higher

Question: What about the “p65 protein level in the cytoplasmic fraction” value [2] of the same substance?
Answer: elevation

Question: What about the “p65 protein level in the nuclear fraction” value [2] of the same substance?
Answer: reduction

Question: What about the “mRNA expression level of NF‐κB (p65)” value (1 µM, ApoER2‐overexpressing macrophages, LPS 6 h, RT‐PCR) of the same substance?
Answer: significantly lower

Question: What about the “Protein level of phospho‐NF‐κB (p‐p65)” value (1 µM, ApoER2‐overexpressing macrophages, LPS 6 h, western blot) of the same substance?
Answer: significantly lower

Question: What about the “mRNA expression of MCP‐1” value [3] of the same substance?
Answer: significantly suppressed

Question: What about the “mRNA expression of TNF‐α” value [3] of the same substance?
Answer: significantly suppressed

Question: And the “mRNA expression of IL‐10” value (1 µM, ApoER2‐overexpressing, versus LPS group, P < 0.05, LPS 18 h)?
Answer: significantly promoted

Question: What about the “mRNA expression level of IL‐10” value [4] of the same substance?
Answer: dose‐dependently higher

Question: And the “mRNA expression levels of TNF‐α and MCP‐1” value [4]?
Answer: dose‐dependently lower

Question: And the “Cytokine/chemokine mRNA and medium protein, macrophage phenotype proportions, NF‐κB nuclear translocation/phosphorylation/mRNA: LPS+SOST versus LPS” value (RAW264.7 (siLrp8) without ApoER2 plasmid, sclerostin 1 µM, LPS 1 µg/mL for varying durations)?
Answer: no significant differences
